Here are results for 19 molecules from ChEMBL document CHEMBL1146613, “Novel inhibitors of procollagen C-terminal proteinase. Part 1: diamino Acid hydroxamates” (Bioorg Med Chem Lett, 2003).

The term Ki denotes a dissociation constant, usually derived from enzyme kinetics or from competition with a known ligand. Read a low Ki as a stronger hold on the target.

The target of this assay is T1, Bone morphogenetic protein 1 (Homo sapiens, UniProt P13497).
T1 sequence (P13497 whole entry): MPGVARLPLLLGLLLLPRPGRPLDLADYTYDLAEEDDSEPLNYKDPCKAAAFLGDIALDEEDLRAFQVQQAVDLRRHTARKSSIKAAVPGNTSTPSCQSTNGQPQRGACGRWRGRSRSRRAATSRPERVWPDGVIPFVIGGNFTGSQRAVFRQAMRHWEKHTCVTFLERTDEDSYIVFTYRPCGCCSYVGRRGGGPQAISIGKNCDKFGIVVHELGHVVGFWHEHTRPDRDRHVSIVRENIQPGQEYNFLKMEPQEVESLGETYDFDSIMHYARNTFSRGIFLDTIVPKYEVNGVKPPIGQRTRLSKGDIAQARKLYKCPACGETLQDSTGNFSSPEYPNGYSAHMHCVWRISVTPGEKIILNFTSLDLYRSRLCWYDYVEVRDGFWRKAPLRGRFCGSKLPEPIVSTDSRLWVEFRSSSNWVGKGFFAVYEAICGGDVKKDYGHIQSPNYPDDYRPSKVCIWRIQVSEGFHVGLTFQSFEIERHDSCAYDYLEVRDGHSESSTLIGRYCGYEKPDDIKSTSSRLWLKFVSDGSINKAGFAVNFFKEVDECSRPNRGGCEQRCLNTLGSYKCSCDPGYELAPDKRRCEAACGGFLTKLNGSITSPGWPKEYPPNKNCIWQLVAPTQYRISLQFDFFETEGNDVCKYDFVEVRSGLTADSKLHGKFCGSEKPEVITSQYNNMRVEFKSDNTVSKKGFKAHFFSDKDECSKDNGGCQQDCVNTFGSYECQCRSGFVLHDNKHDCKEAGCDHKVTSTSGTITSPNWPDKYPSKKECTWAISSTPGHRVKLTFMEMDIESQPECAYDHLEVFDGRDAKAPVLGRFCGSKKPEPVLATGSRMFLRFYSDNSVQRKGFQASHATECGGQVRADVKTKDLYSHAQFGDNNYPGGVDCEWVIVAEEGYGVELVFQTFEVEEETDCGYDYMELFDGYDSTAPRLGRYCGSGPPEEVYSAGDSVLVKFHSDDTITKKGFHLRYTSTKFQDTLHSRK
Put plainly: In vitro inhibitory activity against procollagen C-terminal proteinase (PCP) in HT1080 cells using synthetic peptide as substrate. It counts as cell-based, HT-1080.
With `COc1ccc(S(=O)(=O)N(Cc2ccc3c(c2)OCO3)[C@H](CNC(=O)c2cnoc2C)C(=O)NO)cc1`, the affinity, expressed as Ki, was 1960 nM.
For `COc1ccc(S(=O)(=O)N(Cc2ccc3c(c2)OCO3)[C@H](CCNC(=O)c2cnoc2C)C(=O)NO)cc1`, the Ki amounted to 86 nM.
For the molecule `COc1ccc(S(=O)(=O)N(Cc2ccc3c(c2)OCO3)[C@H](CCCNC(=O)c2ccccc2)C(=O)NO)cc1`, affinity was put at a Ki of 100 nM.
The value for `COC(=O)c1ccc(C(=O)NC[C@H](C(=O)NO)N(Cc2ccc3c(c2)OCO3)S(=O)(=O)c2ccc(OC)cc2)cc1` was 7 nM; that for `COc1ccc(S(=O)(=O)N(Cc2ccc3c(c2)OCO3)[C@H](CNCc2ccc(NC(C)=O)cc2)C(=O)NO)cc1` was 1010 nM.
Regarding `COc1ccc(S(=O)(=O)N(Cc2ccc3c(c2)OCO3)[C@H](CNC(=O)CNc2cnccn2)C(=O)NO)cc1`, the affinity corresponds to a Ki of 250 nM. Against the preceding molecule, the Ki is about 4-fold lower.
As to `COc1ccc(S(=O)(=O)N(Cc2ccc3c(c2)OCO3)[C@H](CNC(=O)c2ccccc2-n2cccc2)C(=O)NO)cc1`, the Ki was determined as 8 nM.
The value for `COc1ccc(S(=O)(=O)N(Cc2ccc3c(c2)OCO3)[C@H](CCNC(=O)c2ccccc2)C(=O)NO)cc1` was 470 nM; that for `COc1ccc(S(=O)(=O)N(Cc2ccc3c(c2)OCO3)[C@H](CNS(=O)(=O)Cc2cccc([N+](=O)[O-])c2)C(=O)NO)cc1` was 28 nM; that for `COC(=O)c1ccc(C(=O)NCC[C@H](C(=O)NO)N(Cc2ccc3c(c2)OCO3)S(=O)(=O)c2ccc(OC)cc2)cc1` was 840 nM.
`COc1ccc(S(=O)(=O)N(Cc2ccc3c(c2)OCO3)[C@H](CNC(=O)c2ccccc2)C(=O)NO)cc1` returned a Ki of 14 nM.
As for `CCOC(=O)C1CCC(NCC(=O)NCC[C@H](C(=O)NO)N(Cc2ccc3c(c2)OCO3)S(=O)(=O)c2ccc(OC)cc2)CC1` (some centres undefined), the figure is 470 nM; as for `COc1ccc(S(=O)(=O)N(Cc2ccc3c(c2)OCO3)[C@H](CCNC(=O)c2ccccc2-n2cccc2)C(=O)NO)cc1`, 530 nM.
For the molecule `COc1ccc(S(=O)(=O)N(Cc2ccc3c(c2)OCO3)[C@H](CCNC(=O)c2c(-c3ccccc3)noc2C)C(=O)NO)cc1`, the Ki stood at 960 nM. Compared with the last molecule, the Ki is about 1.8-fold higher.
As for `CCOc1ccc(NC(=O)NC[C@H](C(=O)NO)N(Cc2ccc3c(c2)OCO3)S(=O)(=O)c2ccc(OC)cc2)cc1`, the figure is 22 nM.
For the molecule `COc1ccc(S(=O)(=O)N(Cc2ccc3c(c2)OCO3)[C@H](CCNC(=O)CNc2cnccn2)C(=O)NO)cc1`, the Ki turned out to be 2500 nM.
As for `COc1ccc(S(=O)(=O)N(Cc2ccc3c(c2)OCO3)[C@H](CNC(=O)NS(=O)(=O)c2ccc(Cl)cc2)C(=O)NO)cc1`, the figure is 18 nM; as for `COc1ccc(S(=O)(=O)N(Cc2ccc3c(c2)OCO3)[C@H](CCCCNC(=O)c2ccccc2)C(=O)NO)cc1`, 350 nM.
As to `COc1ccc(S(=O)(=O)N(Cc2ccc3c(c2)OCO3)[C@H](CCNC(=O)CCc2nc3ccccc3[nH]2)C(=O)NO)cc1`, the Ki came to 410 nM.
